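Grown in 96-well plates, cells were treated for 48 hours with each compound at five concentrations. Insufficient inhibition: endpoint recorded as highest concentration tested. At the GI50, growth is halved. TGI is the concentration that stops growth completely.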
What was measured:
Test in all cases: inhibition of tumour cell growth, NCI panel, 48 h; in the data active = GI50 below about 0.43 µM; inactive = the rest
[1] = tested on: 786-0 renal
[2] = tested on: A498 renal
[3] = tested on: A549 NSCLC
[4] = tested on: ACHN renal
[5] = tested on: BT-549 breast
[6] = tested on: CAKI-1 renal
[7] = tested on: CCRF-CEM leukemia
[8] = tested on: COLO 205 colon
[9] = tested on: DU-145 prostate
[10] = tested on: EKVX NSCLC
[11] = tested on: HCC-2998 colon
[12] = tested on: HCT-116 colon
[13] = tested on: HCT-15 colon
[14] = tested on: HL-60(TB) leukemia
[15] = tested on: HOP-62 NSCLC
[16] = tested on: HOP-92 NSCLC
[17] = tested on: HS 578T breast
[18] = tested on: HT29 colon
[19] = tested on: IGROV1 ovarian
[20] = tested on: K-562 leukemia
[21] = tested on: KM12 colon
[22] = tested on: LOX IMVI melanoma
[23] = tested on: M14 melanoma
[24] = tested on: MALME-3M melanoma
[25] = tested on: MCF7 breast
[26] = tested on: MDA-MB-231 breast
[27] = tested on: MDA-MB-435
[28] = tested on: MOLT-4 leukemia
[29] = tested on: NCI-H226 lung
[30] = tested on: NCI-H23 lung
[31] = tested on: NCI-H460 lung
[32] = tested on: NCI-H522 lung
[33] = tested on: NCI/ADR-RES ovarian
[34] = tested on: OVCAR-3 ovarian
[35] = tested on: OVCAR-4 ovarian
[36] = tested on: OVCAR-5 ovarian
[37] = tested on: OVCAR-8 ovarian
[38] = tested on: PC-3 prostate
[39] = tested on: RPMI-8226 leukemia
[40] = tested on: RXF 393 renal
[41] = tested on: SF-268 CNS
[42] = tested on: SF-295 CNS
[43] = tested on: SF-539 CNS
[44] = tested on: SK-MEL-2 melanoma
[45] = tested on: SK-MEL-28 melanoma
[46] = tested on: SK-MEL-5 melanoma
[47] = tested on: SK-OV-3 ovarian
[48] = tested on: SN12C renal
[49] = tested on: SNB-19 CNS
[50] = tested on: SNB-75 CNS
[51] = tested on: SR leukemia
[52] = tested on: SW-620 colon
[53] = tested on: T-47D breast
[54] = tested on: TK-10 renal
[55] = tested on: U251 CNS
[56] = tested on: UACC-257 melanoma
[57] = tested on: UACC-62 melanoma
[58] = tested on: UO-31 renal

COc1cc(F)c(F)c(Nc2ccc(I)cc2F)c1NS(=O)(=O)C1(C[C@H](O)CO)CC1
active: GI50 [2] 0.0936 µM | GI50 [8] 0.0234 µM | GI50 [10] 0.323 µM | GI50 [11] 0.0206 µM | GI50 [12] 0.201 µM | GI50 [14] 0.0219 µM | GI50 [15] 0.184 µM | GI50 [16] 0.189 µM | GI50 [18] 0.0308 µM | GI50 [19] 0.223 µM | GI50 [21] 0.371 µM | GI50 [23] 0.0242 µM | GI50 [24] 0.0198 µM | GI50 [26] 0.217 µM | GI50 [27] 0.0659 µM | GI50 [30] 0.283 µM | GI50 [36] 0.0597 µM | GI50 [44] 0.0416 µM | GI50 [45] 0.029 µM | GI50 [52] 0.0591 µM | GI50 [54] 0.135 µM | GI50 [56] 0.0239 µM | GI50 [57] 0.0158 µM | GI50 [58] 0.295 µM
0.448 µM: TGI [45]
0.2 µM: TGI [56]
> 2.51 µM: TGI [8]
1.59 µM: TGI [23]
> 5.56 µM: TGI [19]
0.172 µM: TGI [57]
0.22 µM: TGI [24]
> 9.46 µM: TGI [26]
> 9.5 µM: TGI [40]
1.68 µM: TGI [16]
> 9.3 µM: TGI [53]
> 10 µM: TGI [1] | TGI [3] | TGI [4] | TGI [5] | TGI [6] | TGI [7] | TGI [9] | TGI [10] | TGI [12] | TGI [13] | TGI [14] | TGI [15] | TGI [17] | TGI [18] | TGI [20] | TGI [21] | TGI [22] | TGI [25] | TGI [27] | TGI [28] | TGI [29] | TGI [30] | TGI [31] | TGI [32] | TGI [33] | TGI [34] | TGI [35] | TGI [36] | TGI [37] | TGI [38] | TGI [39] | TGI [41] | TGI [42] | TGI [43] | TGI [46] | TGI [47] | TGI [48] | TGI [49] | TGI [50] | TGI [51] | TGI [52] | TGI [54] | TGI [55] | TGI [58]
inactive: GI50 [1] > 4.02 µM | GI50 [3] 0.628 µM | GI50 [4] 0.897 µM | GI50 [5] > 5.26 µM | GI50 [6] 0.44 µM | GI50 [7] > 9.26 µM | GI50 [9] 5.02 µM | GI50 [13] 1.67 µM | GI50 [17] > 5.43 µM | GI50 [20] 1.34 µM | GI50 [22] 0.556 µM | GI50 [25] > 5.31 µM | GI50 [28] > 6.02 µM | GI50 [29] > 3.42 µM | GI50 [31] 1.62 µM | GI50 [32] 3.72 µM | GI50 [33] > 5.58 µM | GI50 [34] > 6.76 µM | GI50 [35] 3.44 µM | GI50 [37] > 6.48 µM | GI50 [38] > 6.75 µM | GI50 [39] 2.66 µM | GI50 [40] 1.05 µM | GI50 [41] 5.72 µM | GI50 [42] > 5.78 µM | GI50 [43] > 6.57 µM | GI50 [46] 1.02 µM | GI50 [47] 3.42 µM | GI50 [48] 1.9 µM | GI50 [49] 1.83 µM | GI50 [50] 2.62 µM | GI50 [51] 6.56 µM | GI50 [53] > 4.02 µM | GI50 [55] 2.09 µM
> 2.01 µM: TGI [44]
> 4.24 µM: TGI [11]
0.478 µM: TGI [2]
